From ChEMBL document CHEMBL4725419, “Complete Regression of Carcinoma via Combined C-RAF and EGFR Targeted Therapy” (2020)

Key:
[1] = Antiproliferative activity against EGFR/C-RAF knockdown human PDAC013T cells harboring K-RAS G12D/TP53 I254T mutant xenografted in mouse tumor model assessed as inhibition of cell proliferation by MTT assay in presence of erlotinib; format: functional
[2] = Antiproliferative activity against EGFR/C-RAF knockdown human Panc4 cells harboring K-RAS G12D/TP53 P72R/R28W mutant xenografted in mouse tumor model assessed as inhibition of cell proliferation by MTT assay in presence of erlotinib; format: functional, Panc-4
[3] = Antiproliferative activity against EGFR/C-RAF knockdown human PDAC003T cells harboring K-RAS G12D/TP53 Q136P mutant xenografted in mouse tumor model assessed as inhibition of cell proliferation by MTT assay in presence of erlotinib; format: functional
[4] = Antiproliferative activity against EGFR/C-RAF knockdown human H-PDAC-M-X3 cells harboring K-RAS G12D/TP53 H179Y mutant xenografted in mouse tumor model assessed as inhibition of cell proliferation by MTT assay in presence of erlotinib; format: functional
PANC-1 = assay: Antiproliferative activity against EGFR/C-RAF knockdown human PANC-1 cells harboring K-RAS G12D/TP53 P72R/K129R mutant xenografted in mouse tumor model assessed as inhibition of cell proliferation by MTT assay in presence of erlotinib; format: functional
[5] = Antiproliferative activity against EGFR/C-RAF knockdown human Panc198 cells harboring K-RAS G12D/TP53 D208V mutant xenografted in mouse tumor model assessed as inhibition of cell proliferation by MTT assay in presence of erlotinib; format: functional

Q: Which INH [1] does the source give for `C#Cc1cccc(Nc2ncnc3cc(OCCOC)c(OCCOC)cc23)c1` [ERLOTINIB] here?
A: Its INH is 2.05 µM.

Q: What about the INH [2] of the same compound?
A: The INH was 2.82 µM.

Q: And the INH [3]?
A: Its INH is 11.7 µM.

Q: What about the INH [4] of the same compound?
A: The INH was 24.5 µM.

Q: And the INH (PANC-1)?
A: Its INH is 6.1 µM.

Q: What about the INH [5] of the same compound?
A: The INH was 32.8 µM.
